Like-named read-outs stand apart in the source and are kept apart here.
Tests used:
[1] = test system: U937 cells; assay: Caspase 3 apoptotic assay in U937 cells; format: cell-based, human; settings: U937, 24 hrs
Protocol: (§1) FIG. 1: a) Cell cycle analysis of U937 cells treated for 30 hrs with the indicated compounds used at 1 and 5 μM; b) Caspase 3 apoptotic assay of the indicated compounds after 24 hrs of treatment in the U937 cells; c) Tubulin acetylation and p21 expression levels at 6 and 16 hrs after treatment with the indicated compounds; total tubulin expression levels are used for equal loading; d) Histone H3 acetylation and K9 H3 methylation expression levels at 6 and 16 hrs after treatment with the indicated compounds; total tubulin expression levels are used for equal loading; e) K9, K14, K18 histone H3 acetylation expression levels at 6 and 16 hrs after treatment with the indicated compounds; total ERKs expression levels are used for equal loading; f) HDAC1 enzymatic assay: IP-HDAC1 is incubated with the indicated inhibitors for 24 Hrs; activity is measured as ^3H-acetyl release; g) HDAC4 enzymatic assay: IP-HDAC4 is incubated with the indicated inhibitors for 24 hrs; activity is measured as ^3H-acetyl release.

[2] = test system: HCT-116 cells; assay: MTT cytotoxicity assay, HCT-116; settings: read-out: IC50 values, MTT cytotoxicity assay; HCT-116, 48 h
[3] = test system: p53; assay: p53 acetylation in MCF7 cells (Western blot); format: cell-based, human; settings: MCF7, 6 hrs, co-treatment with Etoposide 25 μM
Protocol: FIG. 13B: western blot of MCF7 cells treated with etoposide alone or in presence of sirtinol (a known SIRT2 inhibitor) and with uvi5008 concentrations of 50 μM and 5 μM.
MCF7 cells (human breast cancer cells) have been growth following standard procedure and have been treated for 6 hrs with the indicated compounds in presence of 25 μM Etoposide. Total protein extracts have been run on SDS gel and blotted. Western Blot has been carried out by using the anti p53 ac382 (Abcam) following standard procedures. ERKs (Santa Cruz) have been used for equal loading control.

[4] = test system: A-375 cells; assay: MTT cytotoxicity assay, A-375; settings: read-out: IC50 values, MTT cytotoxicity assay; A-375, 48 h
[5] = target: human recombinant SIRT2 (Homo sapiens, UniProt Q8IXJ6); assay: SIRT activity assay, SIRT2; format: biochemical
Protocol: FIG. 13A: % of SIRT1 and SIRT2 activity with controls, sodium suramine, a sirtuin inhibitor, and resveratrol a SIRT1 activator, and with UVI5008 at concentrations of 50 μM and 5 μM.
The SIRT activity assay was performed using the human recombinant SIRT1 and SIRT2. SIRT1 (1 U/well) or SIRT2 (5 U/well), respectively, were incubated (37° C. for 1 h) with the SIRT1/2 substrate (corresponding to a p53 acetylated peptide) in the presence of NAD^+ and various concentrations of tested compounds (sirtuins activators or inhibitors). Activity was measured as fluorescence intensity. As internal controls, sodium suramin, a sirtuin inhibitor, and resveratrol, a SIRT1 activator, have been included. The fluorescence was measured on a fluorometric reader (Inphinite 200 TECAN) with excitation set at 360 nm and emission detection set at 460 nm

[6] = test system: histone H3; assay: Histone H3 acetylation and K9 H3 methylation levels in U937 cells; format: cell-based, human; settings: U937, 6 and 16 hrs
Protocol: as §1
(§2) For the determination of p21^WAF1/CIP1 and p16^INK4 100 μg of total protein extracts were separated on a 15% polyacrylammide gels and blotted. Western blots were shown for p21 (Transduction Laboratories, dilution 1:500), p16 (Santa Cruz) and total ERKs (Santa Cruz) were used to normalise for equal loading. For alpha-tubulin acetylation 25 μg of total protein extracts were separated on a 10% polyacrylamide gels and blotted. Western blots were shown for acetylated alpha-tubulin (Sigma, dilution 1:500) and total ERKs (Santa Cruz) or total tubulin (Sigma) were used to normalise for equal loading.

[7] = test system: HCT-116 colon carcinoma cells xenografted in immunoincompetent mice; settings: for Normalised tumour weight: mean of n = 10
[8] = target: HDAC4 (Homo sapiens, UniProt P56524); assay: HDAC4 enzymatic assay (IP-HDAC4, 3H-acetyl release); format: biochemical; settings: IP-HDAC4 incubated with inhibitor 24 hrs
Protocol: as §1

[9] = test system: p16INK4a promoter; assay: Methylation specific PCR for the p16 gene; format: cell-based; settings: 24 hrs
Protocol: FIG. 2: a) Methylation specific PCR for the RARβ gene after 16 and 24 hrs of treatment with the indicated compounds; b) Methylation specific PCR for the p16 gene after 24 hrs of the indicated treatments. Samples are representative of real duplicates; c) p16 expression levels in U937 cells after 24 hrs with the indicated treatments; d) DNMT enzymatic in vitro assay carried out with 1.5 and 50 μM of the indicated compounds;
DNA extraction was performed as described below. Bisulfite treatment and PCR for the determination of p16 methylation was performed as described from the suppliers (Chemicon).

[10] = test system: p21WAF1/CIP1; assay: p21 expression, Western blot in U937 cells; format: cell-based, human; settings: U937, 6 and 16 hrs
Protocol: as §1
(§3) FIG. 3: a) Cell cycle and apoptosis analysis carried out in U937 cells after 24 hrs with the indicated compounds; values are media of independent triplicates; b) CD11c expression analysis carried out in U937 cells with the indicated compounds; values are media of independent duplicates; c) Tubuline acetylation and p21 expression levels in U937 cells after 24 hrs with the indicated treatments; total ERKs expression levels are used for equal loading; d) acetylation of histone H3 under the conditions indicated in (c).
as §2, with “Western blots were shown for acetylated alpha-tubulin (Sigma, dilution 1:500) and total ERKs (Santa Cruz) or total tubulin (Sigma) were used to normalise for equal loading.” left out

[11] = test system: U937 acute myeloid leukemia cell line; assay: Cell cycle analysis in U937 cells; format: cell-based, human; settings: U937, 30 hrs
Protocol: as §1, §3
Human leukemia cell line U937 was propagated in RPMI medium supplemented with 10% FBS (Foetal bovine serum; Hyclone) and antibiotics (100 U/mL penicillin, 100 μg/mL streptomycin and 250 ng/mL amphotericin-B). Cells were kept at the constant concentration of 200000 cells per milliliter of culture medium. For AML samples, bone marrow containing 80% to 90% leukemic blasts was purified over Ficoll. This study was approved by the Ethical Committee of the Second University of Naples.
MS-275 (Schering A G) was dissolved in ethanol and used at 5×10^−6M; valproic acid (VPA; Sigma) was used at 1 mM. All other compounds described were dissolved in DMSO (Sigma-Aldrich) and used at 1 or 5 μM.
2.5×10^5 cells were collected and resuspended in 500 μL of a hypotonic buffer (0.1% Triton X-100, 0.1% sodium citrate, 50 μg/mL propidium iodide, RNAse A). Cells were incubated in the dark for 30 min. Samples were acquired on a FACS-Calibur flow cytometer using the Cell Quest software (Becton Dickinson) and analysed with standard procedures using the Cell Quest software (Becton Dickinson) and the ModFit LT version 3 Software (Verity). All the experiments were performed 3 times.

Sequence of HDAC4 (P56524 whole entry, species assumed): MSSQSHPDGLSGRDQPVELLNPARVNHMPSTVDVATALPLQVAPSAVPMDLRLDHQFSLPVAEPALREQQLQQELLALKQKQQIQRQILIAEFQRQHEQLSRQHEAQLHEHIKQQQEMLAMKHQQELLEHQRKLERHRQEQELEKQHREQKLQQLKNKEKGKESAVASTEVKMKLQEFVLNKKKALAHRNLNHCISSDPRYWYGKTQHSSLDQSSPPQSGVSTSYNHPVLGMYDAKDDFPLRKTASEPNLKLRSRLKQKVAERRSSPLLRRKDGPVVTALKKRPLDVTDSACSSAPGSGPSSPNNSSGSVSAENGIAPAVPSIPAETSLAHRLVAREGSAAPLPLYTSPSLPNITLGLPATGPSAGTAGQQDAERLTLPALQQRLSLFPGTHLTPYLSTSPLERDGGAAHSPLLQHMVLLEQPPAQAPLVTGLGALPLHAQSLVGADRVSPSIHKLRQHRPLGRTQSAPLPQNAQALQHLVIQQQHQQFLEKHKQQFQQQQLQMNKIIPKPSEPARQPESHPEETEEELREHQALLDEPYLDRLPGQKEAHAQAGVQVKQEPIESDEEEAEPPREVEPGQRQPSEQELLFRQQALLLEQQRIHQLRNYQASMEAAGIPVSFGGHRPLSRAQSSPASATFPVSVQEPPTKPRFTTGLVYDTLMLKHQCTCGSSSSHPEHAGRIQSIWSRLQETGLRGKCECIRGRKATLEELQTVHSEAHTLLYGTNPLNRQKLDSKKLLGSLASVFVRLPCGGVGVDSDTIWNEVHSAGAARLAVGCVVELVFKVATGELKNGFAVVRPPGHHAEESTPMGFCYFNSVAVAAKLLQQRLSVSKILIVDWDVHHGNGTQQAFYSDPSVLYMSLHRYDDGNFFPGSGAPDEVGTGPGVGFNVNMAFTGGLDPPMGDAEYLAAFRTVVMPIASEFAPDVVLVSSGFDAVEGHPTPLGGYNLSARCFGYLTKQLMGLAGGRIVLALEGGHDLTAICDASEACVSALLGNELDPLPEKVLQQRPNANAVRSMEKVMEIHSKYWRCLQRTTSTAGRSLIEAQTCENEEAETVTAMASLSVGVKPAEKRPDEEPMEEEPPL
Sequence of HDAC4 (O15379 whole entry partner, species assumed): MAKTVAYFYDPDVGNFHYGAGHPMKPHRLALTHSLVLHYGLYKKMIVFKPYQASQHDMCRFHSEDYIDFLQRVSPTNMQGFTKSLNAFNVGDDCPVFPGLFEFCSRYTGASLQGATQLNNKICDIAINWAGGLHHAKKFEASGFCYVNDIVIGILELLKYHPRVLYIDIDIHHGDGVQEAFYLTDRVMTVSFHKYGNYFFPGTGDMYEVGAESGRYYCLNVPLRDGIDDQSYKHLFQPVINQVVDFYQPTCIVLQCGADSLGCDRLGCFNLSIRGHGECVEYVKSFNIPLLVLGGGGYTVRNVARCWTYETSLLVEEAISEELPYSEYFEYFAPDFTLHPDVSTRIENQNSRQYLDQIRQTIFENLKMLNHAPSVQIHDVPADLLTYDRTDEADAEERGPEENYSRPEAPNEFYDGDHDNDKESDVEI
Sequence of human recombinant SIRT2 (Q8IXJ6 whole entry): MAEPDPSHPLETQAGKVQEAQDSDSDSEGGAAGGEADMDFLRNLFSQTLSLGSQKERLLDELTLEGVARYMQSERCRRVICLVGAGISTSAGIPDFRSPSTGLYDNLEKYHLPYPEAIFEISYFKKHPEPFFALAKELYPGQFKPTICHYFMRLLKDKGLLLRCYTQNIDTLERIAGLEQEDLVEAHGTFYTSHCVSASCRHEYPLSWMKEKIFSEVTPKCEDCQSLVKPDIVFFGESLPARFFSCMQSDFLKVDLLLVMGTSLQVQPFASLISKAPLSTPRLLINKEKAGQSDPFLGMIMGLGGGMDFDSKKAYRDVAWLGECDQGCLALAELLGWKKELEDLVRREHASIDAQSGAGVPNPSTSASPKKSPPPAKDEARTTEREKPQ

Question: What does the source list for O=C(NCCSSCCNC(=O)C(Cc1c[nH]c2ccc(Br)cc12)=NO)C(Cc1c[nH]c2ccc(Br)cc12)=NO [UVI5008]?
Answer: apoptogenic effect (caspase 3) [1]: strongest apoptogenic effect; IC50 [2]: 1.8 ± 0.1 µM; p53 acetylation levels (readout of SIRT inhibition) [3]: hyperacetylation; IC50 [4]: 3.1 ± 0.5 µM; IC50 [5]: 7.8 µM; H3K9, H3K14 and H3K18 acetylations [6]: all increased; global histone H3 acetylation [6]: dramatically enhanced; methylation of H3K9 [6]: decreased; Percent Growth Inhibition after 22 days ([7]; 40 mg/kg i.p. every second day): 56 ± 7%; animals with signs of toxicity (accumulation of intra peritoneal fluid) ([7]; 40 mg/kg i.p. every second day): 3 animals out of 10; Normalised tumour weight ([7]; day 1, 40 mg/kg i.p. every second day): 100 ± 21.5 mg; Normalised tumour weight ([7]; day 4, 40 mg/kg i.p. every second day): 180.55 ± 43 mg; Normalised tumour weight ([7]; day 12, 40 mg/kg i.p. every second day): 548.73 ± 109.8 mg; Normalised tumour weight ([7]; day 17, 40 mg/kg i.p. every second day): 915.28 ± 196.8 mg; Normalised tumour weight ([7]; day 22, 40 mg/kg i.p. every second day): 1684.79 ± 262.1 mg; anti tumoral activity compared with the reference compounds ([7]; each compound at its MTD): greater anti tumoral activity with respect to SAHA and MS-275; HDAC4 deacetylase activity inhibition [8]: nearly completely blocked; unmethylated p16INK4a promoter DNA (MSP) [9]: increased; expression of p21WAF1/CIP1 [10]: dramatically increased; cell cycle arrest, position of the block ([11]; 1 μM): arrests cells in G2-M; cell cycle arrest, position of the block ([11]; 1 and 5 μM): arrests in the S and G2 phases

— patent US8338473B2, “Derivatives of psammaplin A, a method for their synthesis and their uses for the prevention or treatment of cancer” (Centre National de la Recherche Scientifique, priority 2007, dated 2012)
